# From paper PMC10402266, “Reaction hijacking inhibition of Plasmodium falciparum asparagine tRNA synthetase” (Research Square, 2023)
# What was measured:
# Type in all cases: biochemical
# [1] = target: T1, PfAsnRS (Plasmodium falciparum cytoplasmic asparaginyl tRNA synthetase) (Plasmodium falciparum, UniProt O96198); test: ATP consumption assay of recombinant enzyme with tRNA; Asn adduct found by LC-MS
# T1 construct: gene PF3D7_0211800; recombinant wildtype PfAsnRS, His-tag removed
# [2] = target: T2, PfAsnRS (Plasmodium falciparum cytoplasmic asparaginyl tRNA synthetase) (Plasmodium falciparum, UniProt O96198, R487S); test: ATP consumption assay of recombinant mutant enzyme with tRNA
# T2 construct: gene PF3D7_0211800; recombinant PfAsnRSR487S
# T2 sequence (O96198 1-610 R487S): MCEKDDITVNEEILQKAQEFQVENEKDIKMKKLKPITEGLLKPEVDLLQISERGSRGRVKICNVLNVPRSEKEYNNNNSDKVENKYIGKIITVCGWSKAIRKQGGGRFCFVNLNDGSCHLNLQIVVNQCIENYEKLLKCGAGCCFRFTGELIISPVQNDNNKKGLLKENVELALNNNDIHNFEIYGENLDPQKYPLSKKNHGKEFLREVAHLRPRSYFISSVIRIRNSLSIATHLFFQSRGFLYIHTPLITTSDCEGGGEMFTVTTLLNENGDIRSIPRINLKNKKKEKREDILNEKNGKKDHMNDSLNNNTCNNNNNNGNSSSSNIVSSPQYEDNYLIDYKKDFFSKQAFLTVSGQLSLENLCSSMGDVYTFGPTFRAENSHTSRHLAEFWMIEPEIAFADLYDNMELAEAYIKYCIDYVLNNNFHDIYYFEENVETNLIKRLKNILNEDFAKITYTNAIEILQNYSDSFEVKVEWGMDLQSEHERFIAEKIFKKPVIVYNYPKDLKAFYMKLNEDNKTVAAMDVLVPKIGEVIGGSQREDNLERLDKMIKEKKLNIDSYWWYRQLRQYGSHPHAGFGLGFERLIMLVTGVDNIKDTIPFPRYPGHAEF
# [3] = target: T1, PfAsnRS (Plasmodium falciparum cytoplasmic asparaginyl tRNA synthetase); test: ATP consumption assay of recombinant enzyme
# [4] = target: T1, PfAsnRS (Plasmodium falciparum cytoplasmic asparaginyl tRNA synthetase); test: ATP consumption assay of recombinant enzyme without tRNA, synthetic adduct
smiles,measurement,setting,value
Nc1ncnc2cc(-c3cccc(S(N)(=O)=O)c3)sc12 [OSM-S-106],IC50,[1],3.6 µM
same,IC50,[2],26.3 µM
"Nc1ncnc2c1ncn2[C@@H]1O[C@H](COS(N)(=O)=O)[C@@H](O)[C@H]1O [AMS, adenosine 5’-sulfamate]",IC50,[3],0.0037 µM
NC(=O)C[C@H](N)C(=O)NS(=O)(=O)c1cccc(-c2cc3ncnc(N)c3s2)c1 [Asn-OSM-S-106],IC50,[4],2.6 / 3.3 μM
